Consider 24 compounds from patent US20260193531A1, “LIQUID WEIGHTING AGENTS FOR OIL-BASED FLUIDS” (Albemarle Corporation, priority 2022, published 2026).

Series [1] can be described thus: Density of the esters and ester mixtures. Format: physicochemical.
The next series relates to Leptocheirus plumulosus. It is filed as in vivo. The settings on record: for Quantity: estimate. Here is the method: Sediment toxicity testing. Sediment toxicity testing was according to U.S. Environmental Protection Agency Method 1644, the “Method for Conducting a Sediment Toxicity Test with Leptocheirus plumulosus and Non-Aqueous Drilling Fluids or Synthetic-Based Drilling Muds”. The testing procedure was as follows: • 1. Leptocheirus plumulosus amphipods were cultured and maintained in natural sediment at 23±2° C. before being exposed to a test sample. • 2. A sample contained sediment, synthetic seawater, and the substance being tested. Five samples of each substance were prepared and tested, the sample having concentrations of 100, 200, 400, 800, and 1600 mg/kg of the substance to be tested. • 3. For each sample, a 1-liter jar was prepared with approximately 150 mL of formulated sediment with 600 mL of synthetic sea water, and the substance to be tested. • 4. In each test, 20 Leptocheirus plumulosus amphipods were exposed to the sample at 20±1° C. for 10 days in the 1-L closed jar; the Leptocheirus plumulosus amphipods were not fed after the test was initiated. • 5. At the end of 10 days, the Leptocheirus plumulosus amphipods remaining alive were counted and an LC50 value was predicted based on those results.

Series [2] in a line: Closed-bottle anaerobic biodegradation test, EPA Method 1647 (275 days). The settings on record: Duration 275 days. Here is the method: Anaerobic biodegradation testing. […] For each substance, four samples were run. Each test was compared to separate standard samples containing ethyl oleate, squalane, 1-hexadecene, C16-18 internal olefin, or no additive. To pass the test, the sample must have more net biodegradation than the C16-18 internal olefin. The testing procedure was as follows: • 1. Each test mixture was prepared by combining with 2000 mg carbon (sample) per kg of natural sediment; 30 grams of the mixture were used for each sample run. The carbon content of the sample was measured before mixing the sample with the sediment. […] After a bottle was capped, a nitrogen sparge was employed to remove air in the headspace of the bottle before incubation was started. • 3. During the incubation period, the sample is kept at a constant temperature of 29±1° C. • 4. […] Each sample was brought to ambient temperature to make each measurement. Gas production was measured with a pressure gauge, and barometric pressure was also measured at the time of measurement to make volume corrections.

The nature of series [3]: Miscibility with a base oil (solid formation or phase separation after one week). The settings on record: 50:50 weight mixture with a base oil; for miscibility: room temperature. Format: physicochemical. The protocol:
Some of the liquid weighting agents of this invention are usable as oil-miscible weighting agents (OMWA). As used throughout this document, the term “miscible” means that emulsions and/or separate phases are not observed in a 50:50 weight mixture of one or more of the liquid weighting agents of this invention (total of 50 wt %) and an oil (50 wt %) after the mixture has been kept at 0° C. for one week. Similarly, as used throughout this document, the term “partially miscible” means that emulsions and/or separate phases are not observed in a 50:50 weight mixture of one or more of the liquid weighting agents of this invention (total of 50 wt %) and an oil (50 wt %) after the mixture has been kept at room temperature for one week.
The tribromoneopentyl esters were each combined with a base oil in a 50:50 weight mixture.
Some of the tribromoneopentyl monoesters were tested in pairs in a base oil in a 25:25:50 weight ratio, with 25 wt % of each tribromoneopentyl monoester and 50 wt % of the base oil.
The dibromoallyl esters were each combined with a base oil in a 50:50 weight mixture.
Several mixtures of a monoester containing a terminal alkene moiety were tested in a base oil in a 50:50 weight mixture.
Several mixtures of a tribromoneopentyl monoester and a monoester containing a terminal alkene moiety were tested in a base oil in a 25:25:50 weight ratio, with 25 wt % of the tribromoneopentyl monoester, 25 wt % of 2,3-dibromoprop-2-en-1-yl propanoate, and 50 wt % of the base oil.

The mark [4] stands for this setting: sediment toxicity test, Pass/Fail.

Read-outs that look alike come from different tables or passages of the source.

Turning to `O=C(CBr)OCC(CBr)(CBr)COC(=O)CBr` [2,2-bis(bromomethyl)1,3-propanediol-1,3-bis-(bromoacetate)], in series [1], the Density turned out to be 2.13 g/mL.
Still for that read-out and setting: for `CC(C)C(=O)OCC(CBr)(CBr)COC(=O)C(C)C` [2,2-bis(bromomethyl)1,3-propanediol-1,3-di(2-methylpropanoate)] the value was 1.46 g/mL.
In the case of `CCCCCC(=O)OCC(CBr)(CBr)COC(=O)CCCCC` [2,2-bis(bromomethyl)1,3-propanediol-1,3-dihexanoate], the Result entry in the series on Leptocheirus plumulosus (in vivo) is listed as “Pass”. For the same compound, the Density in series [1] is listed as 1.28 g/mL. In series [2], this compound came in with an Amount biodegradation of 7.36%.
In the case of `CCC(=O)OCC(CBr)(CBr)COC(=O)CC` [2,2-bis(bromomethyl)1,3-propanediol-1,3-dipropionate], in series [1], the Density stood at 1.62 g/mL.
As for `CC(C)C(=O)OCC(Br)=CBr` [2,3-dibromoallyl 2-methylpropanoate], the Density in series [1] was 1.70 g/mL. Besides, in series [3] (kept at −18° C. for one week), the “solid formation or phase separation” value is on record as “no solid formation or phase separation was observed”. Moreover, the miscibility result in series [3] was “miscible”.
Consider `CC(=O)OCC(Br)=CBr` [2,3-dibromoallyl acetate], for which, in series [1], the Density turned out to be 1.83 g/mL. Moreover, the “solid formation or phase separation” value in series [3] (0° C. for one week) is on record as “no solid formation or phase separation was observed”.
Take `CCC(=O)OCC(Br)=CBr` [2,3-dibromoallyl propionate]: the Density in series [1] is reported as 1.79 g/mL. Also, the “solid formation or phase separation” value in series [3] (kept at −18° C. for one week) is “no solid formation or phase separation was observed”. Moreover, the miscibility entry in series [3] is “miscible”.
On to `CC(C)C(=O)OC/C(Br)=C(\Br)COC(=O)C(C)C` [(2E)-2,3-dibromobut-2-ene-1,4-diyl bis(2-methylpropanoate)], for which, in series [1], the Density came to 1.49 g/mL.
Turning to `CCC(Br)C(=O)OC/C(Br)=C(\Br)COC(=O)C(Br)CC` (centres unmarked) [(2E)-2,3-dibromobut-2-ene-1,4-diyl bis(2′-bromobutyrate)], the Density in series [1] amounted to 1.94 g/mL.
Take `CCC(=O)OC/C(Br)=C(\Br)COC(=O)CC` [(2E)-2,3-dibromobut-2-ene-1,4-diyl bis(propanoate)]: in the series with Leptocheirus plumulosus (in vivo), the Result result is “Pass”. The Density in series [1] is given as 1.59 g/mL. Further, the Amount biodegradation in series [2] came out at 54.64%.
For the compound `O=C(CBr)OC/C=C\COC(=O)CBr` [(2Z)-but-2-ene-1,4-diyl bis(bromoacetate)], in series [1], the Density was 1.74 g/mL.
The same measure, in the same setting: for `CC(C)C(=O)OCc1cc(Br)cc(Br)c1` [(3,5-dibromophenyl)methyl 2-methylpropanoate] the value was 1.62 g/mL.
With `CC(=O)OCc1cc(Br)cc(Br)c1` [(3,5-dibromophenyl)methyl acetate], in series [1], the Density turned out to be 1.76 g/mL.
Consider `O=C(CBr)OCc1cc(Br)cc(Br)c1` [(3,5-dibromophenyl)methyl bromoacetate], for which the Density in series [1] came to 2.06 g/mL.
Consider `CCCC(=O)OCc1cc(Br)cc(Br)c1` [(3,5-dibromophenyl)methyl butyrate], for which the Density in series [1] was 1.62 g/mL. In series [2], the Amount biodegradation was 25.1%.
As to `CCCCC(=O)OCc1cc(Br)cc(Br)c1` [(3,5-dibromophenyl)methyl pentanoate], in series [1], the Density amounted to 1.56 g/mL.
The same measure, in the same setting: the value for `CCC(=O)OCc1cc(Br)cc(Br)c1` [(3,5-dibromophenyl)methyl propionate] was 1.68 g/mL.
On the same count and under the same terms, the value for `O=C(CBr)OCC(COC(=O)CBr)OC(=O)CBr` [propane-1,2,3-triyl tris (bromoacetate)] was 1.95 g/mL.
Take `CC(C)C(=O)OCC(CBr)(CBr)CBr` [tribromoneopentyl 2-methylpropanoate, 3-bromo-2,2-bis(bromomethyl)propyl 2-methylpropanoate]: the Result entry with Leptocheirus plumulosus (setting [4]) is given as “Fail”. In the series with Leptocheirus plumulosus (sediment toxicity test), the Quantity is given as ~243 mg/kg (estimate). In series [1], the Density is 1.79 g/mL.
For `CCCC(=O)OCC(CBr)(CBr)CBr` [tribromoneopentyl butyrate, 3-bromo-2,2-bis(bromomethyl)propyl butyrate], in series [1], the Density is on record as 1.79 g/mL. Besides, in series [3] (0° C. for one week), the “solid formation or phase separation” value is recorded as “no solid formation or phase separation was observed”.
On to `CCCCCC(=O)OCC(CBr)(CBr)CBr` [tribromoneopentyl hexanoate, 3-bromo-2,2-bis(bromomethyl)propyl hexanoate], for which the Density in series [1] stood at 1.57 g/mL.
As to `CC(C)CC(=O)OCC(CBr)(CBr)CBr` [tribromoneopentyl isovalerate, 3-bromo-2,2-bis(bromomethyl)propyl isovalerate], the Density in series [1] is reported as 1.73 g/mL.
Regarding `CCC(=O)OCC(CBr)(CBr)CBr` [tribromoneopentyl propionate, 3-bromo-2,2-bis(bromomethyl)propyl propionate], in series [1], the Density is given as 1.87 g/mL. Also, the “solid formation or phase separation” value in series [3] (0° C. for one week) and in series [3] (kept at −18° C. for one week) was “phase separation was observed” in each case.
In the case of `CCCCC(=O)OCC(CBr)(CBr)CBr` [tribromoneopentyl valerate, 3-bromo-2,2-bis(bromomethyl)propyl pentanoate], in the series with Leptocheirus plumulosus (setting [4]), the Result result is given as “Pass”. In the series with Leptocheirus plumulosus (sediment toxicity test), the Quantity is ~363 mg/kg (estimate). Besides, the Density in series [1] was determined as 1.72 g/mL.
